The results in this text go back to ChEMBL document CHEMBL4007491, “Structure-based drug design of novel ASK1 inhibitors using an integrated lead optimization strategy” (Bioorg Med Chem Lett, 2017).

In brackets after ≈: the same amount, converted by molar mass. A value given as a limit tells only on which side of the number the result lay.

As usually defined, the IC50 is the concentration needed to halve the response being measured. The term inhibition denotes the relative decrease from the control value, in per cent. A low value points to little suppression. For orientation: EC50 means the concentration that produces a half-maximal response.

A short description of data set [1]: Thermodynamic solubility of the compound in pH 6.8 solution. The format is physicochemical. Conditions: read-out: Therm_solubility.
Data set [2] addresses Glycogen synthase kinase-3 beta (Homo sapiens, UniProt P49841). Put plainly: Inhibition of recombinant full length human His-tagged GSK3B expressed in baculovirus expression system.
Data set [3] concerns the target T1, Mitogen-activated protein kinase kinase kinase 5 (Homo sapiens, UniProt Q99683).
T1 sequence (Q99683 whole entry): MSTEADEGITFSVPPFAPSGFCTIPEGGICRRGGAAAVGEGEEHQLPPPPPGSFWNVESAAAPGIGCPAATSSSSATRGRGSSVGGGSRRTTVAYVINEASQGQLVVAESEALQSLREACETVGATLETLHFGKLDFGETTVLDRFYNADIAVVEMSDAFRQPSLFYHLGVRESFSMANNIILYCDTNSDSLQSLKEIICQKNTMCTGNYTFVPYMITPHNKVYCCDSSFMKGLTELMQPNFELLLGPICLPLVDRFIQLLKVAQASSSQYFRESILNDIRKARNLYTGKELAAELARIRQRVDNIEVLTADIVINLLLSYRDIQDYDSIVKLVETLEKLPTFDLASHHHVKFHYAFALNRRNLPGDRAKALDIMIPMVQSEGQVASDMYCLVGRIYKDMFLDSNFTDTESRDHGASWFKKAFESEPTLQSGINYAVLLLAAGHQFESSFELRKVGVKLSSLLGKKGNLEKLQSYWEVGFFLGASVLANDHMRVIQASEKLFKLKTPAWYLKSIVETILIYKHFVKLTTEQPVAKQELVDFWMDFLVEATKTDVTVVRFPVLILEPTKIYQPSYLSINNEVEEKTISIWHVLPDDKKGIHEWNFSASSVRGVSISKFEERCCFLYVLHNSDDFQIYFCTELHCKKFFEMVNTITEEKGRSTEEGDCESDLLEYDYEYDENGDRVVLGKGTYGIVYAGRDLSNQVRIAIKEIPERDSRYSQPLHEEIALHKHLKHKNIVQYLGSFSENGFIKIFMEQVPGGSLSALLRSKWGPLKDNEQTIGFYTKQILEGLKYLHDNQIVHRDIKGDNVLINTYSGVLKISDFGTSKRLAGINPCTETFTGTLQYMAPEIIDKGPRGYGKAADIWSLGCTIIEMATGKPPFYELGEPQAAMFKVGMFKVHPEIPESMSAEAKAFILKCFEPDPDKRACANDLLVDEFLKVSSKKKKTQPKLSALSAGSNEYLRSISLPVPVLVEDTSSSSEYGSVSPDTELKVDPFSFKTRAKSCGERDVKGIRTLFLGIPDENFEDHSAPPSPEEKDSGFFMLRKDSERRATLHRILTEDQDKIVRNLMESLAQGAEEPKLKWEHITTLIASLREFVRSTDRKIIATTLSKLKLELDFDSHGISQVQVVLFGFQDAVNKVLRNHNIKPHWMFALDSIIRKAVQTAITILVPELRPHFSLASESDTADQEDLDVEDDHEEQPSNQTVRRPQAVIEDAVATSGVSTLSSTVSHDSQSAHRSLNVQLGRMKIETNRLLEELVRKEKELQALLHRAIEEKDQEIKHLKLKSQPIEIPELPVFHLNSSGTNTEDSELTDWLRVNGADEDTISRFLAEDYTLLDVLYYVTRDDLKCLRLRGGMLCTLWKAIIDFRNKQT
Put plainly: Inhibition of ASK1 (unknown origin) using biotin-MBP as substrate after 20 mins by TR-FRET assay. A general note: Time-resolved FRET reads energy transfer from a long-lived donor to a nearby acceptor.

Data set [4] in a line: Intrinsic clearance in human liver microsomes. The format is ADME, microsome. Conditions: read-out: CLH. In general terms: Liver microsomes are a subcellular fraction often used to study metabolism.
In the next data set the target is T2, CYP1A2 (Homo sapiens, UniProt P05177).
T2 sequence (P05177 whole entry): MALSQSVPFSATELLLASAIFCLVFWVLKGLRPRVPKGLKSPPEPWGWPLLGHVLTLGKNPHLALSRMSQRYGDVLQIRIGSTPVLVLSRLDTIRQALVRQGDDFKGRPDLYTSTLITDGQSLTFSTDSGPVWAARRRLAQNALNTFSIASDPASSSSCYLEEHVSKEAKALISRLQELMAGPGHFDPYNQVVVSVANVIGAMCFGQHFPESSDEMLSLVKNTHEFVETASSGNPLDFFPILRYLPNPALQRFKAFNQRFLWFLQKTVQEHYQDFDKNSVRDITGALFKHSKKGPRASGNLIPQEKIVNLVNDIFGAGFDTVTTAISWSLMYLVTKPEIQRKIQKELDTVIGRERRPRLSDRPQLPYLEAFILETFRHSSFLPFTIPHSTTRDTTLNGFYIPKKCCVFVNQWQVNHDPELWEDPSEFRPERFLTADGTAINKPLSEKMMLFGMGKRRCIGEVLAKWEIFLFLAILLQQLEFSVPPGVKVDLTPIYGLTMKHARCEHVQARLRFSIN
Description: Inhibition of CYP1A2 (unknown origin) at 10 uM relative to control. The format is ADME.

The target in data set [5] is T1, Mitogen-activated protein kinase kinase kinase 5. Description: Inhibition of ASK1 (unknown origin) assessed as reduction in JNK phosphorylation by cell based assay.
The target in data set [6] is 5'-AMP-activated protein kinase catalytic subunit alpha-1 (Homo sapiens, UniProt Q13131). Description: Inhibition of PRKAA1 (unknown origin).
The target of data set [7] is Epidermal growth factor receptor (Homo sapiens, UniProt P00533). Put plainly: Inhibition of recombinant human GST-tagged EGFR cytoplasmic domain (668 to 1210 residues) expressed in baculovirus expression system.
Data set [8] concerns the target Proto-oncogene tyrosine-protein kinase receptor Ret (Homo sapiens, UniProt P07949). Put plainly: Inhibition of recombinant human GST-tagged RET cytoplasmic domain expressed in baculovirus expression system.
The next data set concerns the target CYP2C9 (Homo sapiens, UniProt P11712). Description: Inhibition of CYP2C9 (unknown origin) at 10 uM relative to control. The format is ADME.
Data set [9] deals with Cyclin-dependent kinase 2 (Homo sapiens, UniProt P24941). Description: Inhibition of CDK2 (unknown origin).

Chain of Epidermal growth factor receptor (P00533 whole entry, the tested form may be a part): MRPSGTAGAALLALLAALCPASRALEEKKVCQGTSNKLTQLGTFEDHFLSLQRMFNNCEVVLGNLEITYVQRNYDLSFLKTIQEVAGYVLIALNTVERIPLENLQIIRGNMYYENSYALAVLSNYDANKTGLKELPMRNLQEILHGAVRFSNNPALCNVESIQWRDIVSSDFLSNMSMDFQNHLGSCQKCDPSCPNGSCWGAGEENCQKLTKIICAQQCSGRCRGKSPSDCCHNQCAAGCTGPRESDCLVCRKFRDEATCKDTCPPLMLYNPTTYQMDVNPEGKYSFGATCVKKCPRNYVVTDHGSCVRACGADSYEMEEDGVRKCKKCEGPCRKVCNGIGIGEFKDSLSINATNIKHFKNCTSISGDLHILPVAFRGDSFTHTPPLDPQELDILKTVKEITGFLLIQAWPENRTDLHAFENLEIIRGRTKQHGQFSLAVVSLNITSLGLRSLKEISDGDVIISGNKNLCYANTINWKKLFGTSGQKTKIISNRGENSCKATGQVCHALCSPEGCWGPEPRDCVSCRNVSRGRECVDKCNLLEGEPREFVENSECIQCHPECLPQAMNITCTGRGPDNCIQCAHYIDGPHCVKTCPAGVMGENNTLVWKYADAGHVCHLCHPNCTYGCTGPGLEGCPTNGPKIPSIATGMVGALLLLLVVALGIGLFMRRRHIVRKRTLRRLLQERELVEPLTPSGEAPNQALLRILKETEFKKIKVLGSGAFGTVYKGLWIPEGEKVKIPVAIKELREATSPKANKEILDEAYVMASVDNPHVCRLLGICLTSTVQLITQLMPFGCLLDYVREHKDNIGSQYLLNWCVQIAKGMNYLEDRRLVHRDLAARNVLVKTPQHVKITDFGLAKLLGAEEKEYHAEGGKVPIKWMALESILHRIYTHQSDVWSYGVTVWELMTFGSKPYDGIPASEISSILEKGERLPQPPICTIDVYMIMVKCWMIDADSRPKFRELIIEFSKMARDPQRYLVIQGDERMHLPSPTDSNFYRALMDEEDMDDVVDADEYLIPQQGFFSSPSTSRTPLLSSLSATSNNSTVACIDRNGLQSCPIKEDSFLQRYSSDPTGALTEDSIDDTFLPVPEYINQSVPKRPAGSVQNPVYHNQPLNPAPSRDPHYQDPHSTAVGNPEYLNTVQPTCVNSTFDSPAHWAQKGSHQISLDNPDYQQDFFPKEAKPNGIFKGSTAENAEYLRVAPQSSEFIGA
Chain of Proto-oncogene tyrosine-protein kinase receptor Ret (P07949 whole entry, the tested form may be a part): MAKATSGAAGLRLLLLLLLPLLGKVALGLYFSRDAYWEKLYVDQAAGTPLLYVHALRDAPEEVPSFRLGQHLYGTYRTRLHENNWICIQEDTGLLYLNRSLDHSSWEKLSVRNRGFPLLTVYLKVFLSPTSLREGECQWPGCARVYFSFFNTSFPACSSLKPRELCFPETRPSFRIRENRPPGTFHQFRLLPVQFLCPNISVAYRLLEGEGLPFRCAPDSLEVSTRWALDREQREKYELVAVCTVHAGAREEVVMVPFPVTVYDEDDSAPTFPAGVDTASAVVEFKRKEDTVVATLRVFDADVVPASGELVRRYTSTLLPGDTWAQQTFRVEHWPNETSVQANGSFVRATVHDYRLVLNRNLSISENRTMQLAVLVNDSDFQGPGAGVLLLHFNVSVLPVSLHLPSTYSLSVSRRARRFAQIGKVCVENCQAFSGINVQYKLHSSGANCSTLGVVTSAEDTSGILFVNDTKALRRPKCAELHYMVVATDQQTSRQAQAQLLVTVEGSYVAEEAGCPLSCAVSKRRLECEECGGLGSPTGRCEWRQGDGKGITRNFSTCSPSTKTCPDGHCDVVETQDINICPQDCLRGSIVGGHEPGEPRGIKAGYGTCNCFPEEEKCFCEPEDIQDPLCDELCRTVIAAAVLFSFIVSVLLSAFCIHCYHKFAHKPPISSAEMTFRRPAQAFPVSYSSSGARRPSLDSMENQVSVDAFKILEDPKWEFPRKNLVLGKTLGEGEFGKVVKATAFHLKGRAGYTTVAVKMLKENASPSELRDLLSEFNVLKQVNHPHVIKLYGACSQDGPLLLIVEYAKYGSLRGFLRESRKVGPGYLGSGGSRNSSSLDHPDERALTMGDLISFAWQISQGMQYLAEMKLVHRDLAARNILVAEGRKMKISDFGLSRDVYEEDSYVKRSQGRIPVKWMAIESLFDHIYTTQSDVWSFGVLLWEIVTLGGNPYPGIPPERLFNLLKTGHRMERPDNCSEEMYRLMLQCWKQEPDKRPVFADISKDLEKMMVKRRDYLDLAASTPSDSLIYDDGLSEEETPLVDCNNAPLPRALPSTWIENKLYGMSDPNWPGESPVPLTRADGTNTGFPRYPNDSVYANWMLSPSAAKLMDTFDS
Chain of 5'-AMP-activated protein kinase catalytic subunit alpha-1 (Q13131 whole entry, the tested form may be a part): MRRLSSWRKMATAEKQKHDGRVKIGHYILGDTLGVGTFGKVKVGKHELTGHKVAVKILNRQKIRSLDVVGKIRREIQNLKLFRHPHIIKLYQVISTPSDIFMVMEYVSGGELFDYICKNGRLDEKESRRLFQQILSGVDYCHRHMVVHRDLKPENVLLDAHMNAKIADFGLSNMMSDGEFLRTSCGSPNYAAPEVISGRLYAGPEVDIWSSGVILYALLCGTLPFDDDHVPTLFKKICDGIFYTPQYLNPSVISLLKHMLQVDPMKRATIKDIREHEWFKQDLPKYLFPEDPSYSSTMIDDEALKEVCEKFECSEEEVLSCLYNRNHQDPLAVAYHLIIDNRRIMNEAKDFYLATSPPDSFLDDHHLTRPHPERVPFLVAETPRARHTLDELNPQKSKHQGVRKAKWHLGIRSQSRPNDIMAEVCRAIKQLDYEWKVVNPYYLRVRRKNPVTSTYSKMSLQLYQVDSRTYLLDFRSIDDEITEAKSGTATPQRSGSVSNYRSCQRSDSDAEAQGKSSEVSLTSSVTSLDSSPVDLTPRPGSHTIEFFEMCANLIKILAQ
Chain of Glycogen synthase kinase-3 beta (P49841 whole entry): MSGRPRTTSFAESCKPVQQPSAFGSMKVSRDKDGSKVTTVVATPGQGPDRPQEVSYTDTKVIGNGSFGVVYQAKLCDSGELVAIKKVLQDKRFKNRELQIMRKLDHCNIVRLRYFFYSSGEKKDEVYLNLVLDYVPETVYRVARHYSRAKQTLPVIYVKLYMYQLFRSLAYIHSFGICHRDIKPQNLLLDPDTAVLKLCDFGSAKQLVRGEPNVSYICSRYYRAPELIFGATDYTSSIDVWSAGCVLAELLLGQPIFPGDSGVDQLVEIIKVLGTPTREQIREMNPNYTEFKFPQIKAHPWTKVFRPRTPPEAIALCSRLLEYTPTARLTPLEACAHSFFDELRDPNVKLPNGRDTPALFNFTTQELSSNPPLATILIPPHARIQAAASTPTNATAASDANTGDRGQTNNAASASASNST
Chain of CYP2C9 (P11712 whole entry): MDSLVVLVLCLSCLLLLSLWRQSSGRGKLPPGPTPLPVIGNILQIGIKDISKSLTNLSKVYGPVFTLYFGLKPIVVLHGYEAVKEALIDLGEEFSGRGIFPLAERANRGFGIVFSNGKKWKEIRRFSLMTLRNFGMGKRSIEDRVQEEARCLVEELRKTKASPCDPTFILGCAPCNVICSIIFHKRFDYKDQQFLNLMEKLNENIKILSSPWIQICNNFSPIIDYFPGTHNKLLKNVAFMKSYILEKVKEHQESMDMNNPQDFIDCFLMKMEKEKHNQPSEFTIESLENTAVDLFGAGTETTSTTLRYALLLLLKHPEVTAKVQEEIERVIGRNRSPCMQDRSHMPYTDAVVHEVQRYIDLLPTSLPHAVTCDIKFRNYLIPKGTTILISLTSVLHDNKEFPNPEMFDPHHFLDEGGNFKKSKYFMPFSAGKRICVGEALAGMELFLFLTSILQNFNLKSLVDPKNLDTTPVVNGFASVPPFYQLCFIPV

For the molecule `COCCn1cc(NC(=O)c2csc(-c3nncn3C(C)C)n2)cn1`, the solubility thermodynamic in [1] was 208 µM (≈ 75.2 µg/mL). Moreover, the IC50 was 457 nM in data set [2]; 60 nM in [3]; 794 nM in [6]; more than 20000 nM in [7]; 617 nM in data set [8]; 1000 nM in data set [9]. For the same molecule, the CLint scaled in [4] was 8.8 mL/min/kg. Also, the inhibition at 10 µM at CYP1A2 amounted to 8%; against CYP2C9 it was 36%. Besides, the EC50 in data set [5] was found to be 60 nM.
